In brackets after ≈: the same amount, converted by molar mass. Counter-ions that a name gives are not always drawn.
How the values were obtained:
[1] = test system: P. aeruginosa E-2; assay: Measurement of Minimal Growth Inhibitory Concentration (MIC), agar plate dilution, P. aeruginosa; type: cell-based; conditions: Pseudomonas aeruginosa, E2, 10^6 CFU/ml, 37° C., 18 hours, read-out: MIC (3)
Procedure: (§1) 1. Measurement of Minimal Growth Inhibitory Concentration (MIC)
(§2) MIC was measured by agar plate dilution assay method in accordance with the standard by Japan Chemical Therapeutics Association (refer to Journal of Japan Chemical Therapeutics Association, 29 (1), 76 to 79 (1981).
(§3) Briefly, a bacteria suspension as incubated in a bouillon medium for measurement of sensitivity, at 37° C. for 18 hours was diluted to 10^6 CFU/ml with the same medium. This was inoculated on an agar medium for measurement of sensitivity, which contained a compound to be tested, with a microplanter and incubated at 37° C. for 18 hours and then the MIC was measured. Enoxacin was used as a control.

[2] = test system: E. coli KC-14; assay: Remedial Effect against Mouse Infectious Diseases, E. coli KC-14; type: in vivo, ddy male mice infected with E. coli KC-14; design: key: -: ineffective; +: somewhat poorer than enoxacin; ++: comparable to enoxacin; +++: extremely effective; conditions: E. coli KC-14, 5.1×10^4 CFU/mouse; single oral dose 2 h after inoculation; survival after one week, compared with enoxacin
Procedure: (§4) 2. Remedial Effect against Mouse Infectious Diseases:
(§5) E. coli KC-14 and P. aeruginosa E-2 each were suspended in 4% mucin, and 0.25 ml of each of the resulting suspensions was inoculated into the abdominal cavity of ddy male mice (weight: about 20 g, 4-week age, 10 mice for one group). The amount of the bacteria inoculated was 5.1×10^4 CFU/mouse for E. coli KC-14 and 7.5×10^4 CFU/mouse for P. aeruginosa E-2. Two hours after the inoculation of the bacteria, the compound to be tested was orally administered once, and the number of the animals living after one week was counted. The results obtained were compared with those using the control enoxacin.

[3] = test system: P. aeruginosa E-2; assay: Remedial Effect against Mouse Infectious Diseases, P. aeruginosa E-2; type: in vivo, ddy male mice infected with P. aeruginosa E-2; design: key: -: ineffective; +: somewhat poorer than enoxacin; ++: comparable to enoxacin; +++: extremely effective; conditions: P. aeruginosa E-2, 7.5×10^4 CFU/mouse; single oral dose 2 h after inoculation; survival after one week, compared with enoxacin
Procedure: as §4, §5

[4] = test system: S. aureus; assay: Measurement of Minimal Growth Inhibitory Concentration (MIC), agar plate dilution, S. aureus; type: cell-based; conditions: Staphylococcus aureus, 10^6 CFU/ml, 37° C., 18 hours, read-out: MIC (1)
Procedure: as §1, §2, §3

[5] = test system: E. coli; assay: Measurement of Minimal Growth Inhibitory Concentration (MIC), agar plate dilution, E. coli; type: cell-based; conditions: Escherichia coli, 10^6 CFU/ml, 37° C., 18 hours, read-out: MIC (2)
Procedure: as §1, §2, §3

Compound	MIC [1] [µg/mL]	Remedial Effect (2) [2]	Remedial Effect (3) [3]	MIC [4] [µg/mL]	MIC [5] [µg/mL]
CCn1cc(C(=O)O)c(=O)c2cc(F)c(N3CCNCC3)nc21 [Enoxacin, enoxacin, reference compound]	0.78 (≈ 2.44 µM)	++	++	0.78 (≈ 2.44 µM)	0.2 (≈ 0.624 µM)
O=C(O)c1c2n(c3nc(N4CCNCC4)c(F)cc3c1=O)CS2 [Example 2, 6-Fluoro-7-(1-piperazinyl)-4-oxo-4H[1,3]-thiazeto[3,2-a]-1,8-naphthyridine-3-carboxylic Acid Hydrochloride]	0.39	+	+	0.39	0.05
CN1CCN(c2nc3c(cc2F)c(=O)c(C(=O)O)c2n3CS2)CC1 [Example 3, 6-Fluoro-7-(4-methyl-1-piperazinyl)-4-oxo-4H[1,3]-thiazeto[3,2-a]-1,8-naphthyridine-3-carboxylic Acid Hydrochloride]	0.39	+++	+++	0.39	0.025
CC1Sc2c(C(=O)O)c(=O)c3cnc(N4CCN(C)CC4)nc3n21 (centres unmarked) [Example 7, 1-Methyl-7-(4-methyl-1-piperazinyl)-4-oxo-4H[1,3]thiazeto[3',2'-1,2]pyrido[2,3-d]pyrimidine-3-carboxylic Acid]	1.56 (≈ 4.49 µM)	++	-	1.56 (≈ 4.49 µM)	0.1 (≈ 0.288 µM)
CC1Sc2c(C(=O)O)c(=O)c3cc(F)c(N4CCNCC4)nc3n21 (centres unmarked) [Example 12, 6-Fluoro-1-methyl-4-oxo-7-(1-piperazinyl)-4H[1,3]thiazeto[3,2-a]-1,8-naphthyridine-3-carboxylic Acid Hydrochloride]	0.1	+++	+++	0.1	0.0125
CC1Sc2c(C(=O)O)c(=O)c3cc(F)c(N4CCN(C)CC4)nc3n21 (centres unmarked) [Example 14, 6-Fluoro-1-methyl-7-(4-methyl-1-piperazinyl)-4-oxo-4H[1,3]thiazeto[3,2-a]-1,8-naphthyridine-3-carboxylic Acid]	0.2 (≈ 0.549 µM)	+++	+++	0.1 (≈ 0.274 µM)	0.0125 (≈ 0.0343 µM)
CC1Sc2c(C(=O)O)c(=O)c3cc(F)c(N4CCOCC4)nc3n21 (centres unmarked) [Example 18, 6-Fluoro-1-methyl-7-morpholino-4-oxo-4H[1,3]thiazeto[3,2-a]-1,8-naphthyridine-3-carboxylic Acid]	0.78 (≈ 2.22 µM)	+	-	0.1 (≈ 0.285 µM)	0.05 (≈ 0.142 µM)
O=C(O)c1c2n(c3nc(N4CCNCC4)c(Cl)cc3c1=O)CS2 [Example 20, 6-Chloro-4-oxo-7-(1-piperazinyl)-4H[1,3]thiazeto[3,2-a]-1,8-naphthyridine-3-carboxylic Acid Hydrochloride]	0.78	+	-	0.78	0.05
CC1Sc2c(C(=O)O)c(=O)c3cc(Cl)c(N4CCNCC4)nc3n21 (centres unmarked) [Example 21, 6-Chloro-1-methyl-4-oxo-7-(1-piperazinyl)-4H[1,3]thiazeto[3,2-a]-1,8-naphthyridine-3-carboxylic Acid Hydrochloride]	0.78	+	+	0.39	0.025
CC1Sc2c(C(=O)O)c(=O)c3cc(Cl)c(N4CCN(C)CC4)nc3n21 (centres unmarked) [Example 25, 6-Chloro-1-methyl-7-(4-methyl-1-piperazinyl)-4-oxo-4H[1,3]thiazeto[3,2-a]-1,8-naphthyridine-3-carboxylic Acid Ethanesulfonate]	0.78	+	-	0.39	0.025
O=C(O)c1c2n(c3nc(N4CCNCC4)c(F)cc3c1=O)C(c1ccccc1)S2 (centres unmarked) [Example 34, 6-Fluoro-1-phenyl-7-piperazinyl-4-oxo-4H[1,3]thiazeto[3,2-a]-1,8-naphthylidine-3-carboxylic acid hydrochloride]	0.39			0.39	0.1
O=C(O)c1c2n(c3nc(N4CCNCC4)c(F)cc3c1=O)C(c1ccc(F)cc1)S2 (centres unmarked) [Example 35, 6-fluoro-1-(4-fluorophenyl)-7-piperazinyl-4-oxo-4H(1,3)thiazeto(3,2-a)-1,8-naphthylidine-3-carboxylic acid]	0.39 (≈ 0.906 µM)			0.39 (≈ 0.906 µM)	0.1 (≈ 0.232 µM)
